In patent US12668568B2, “Adamantanyl-substituted benzamide compounds and their use as P2X7 receptor antagonists” (The University of Sydney, priority 2018, dated 2026):

Columns and labels:
[1] = Lipophilicity: Log D7.4 determined by HPLC method; format: physicochemical; conditions: for lipophilicity compared with compound 31: HPLC logD7.4; for logD7.4 / chromatographic logD: HPLC retention time, 65 v/v % methanol in 50 mM sodium phosphate buffer pH 7.4; for chromatographic logD: reversed-phase HPLC, Waters Sunfire C18 5 µm column, read-out: logD7.4
Description: Lipophilicity of the compounds was evaluated by an experimentally derived Log D7.4 value determined by a HPLC method.^1 It is preferred that the lipophilicity of the compounds is as low as possible.
High Performance Liquid Chromatography was performed on a Waters 2695 Separations module equipped with the Waters Alliance Series Column Heater (set at 30° C.) and Waters 2996 Photodiode Array (PDA) Detector. […] Standards and samples were dissolved in the elution solvent mixture and then filtered prior to injection. Data acquisition and processing was performed with the Waters Empower 2 software and Microsoft Excel™ was used for data analysis. All standards and samples were analyzed in triplicate.
. An […] curve was obtained (FIG. 1) which was fitted to the equation [Log D7.4=0.8342(RET)+1.7393] with an R^2 of 0.97.
The RET from three injections was averaged with the log D7.4 value extrapolated from the equation found in FIG. 1.

[2] = target: T1, mP2X7R (Mus musculus, UniProt Q9Z1M0); assay: Calcium influx assay in HEK-mP2X7 cells; format: cell-based; conditions: HEK cells expressing mP2X7R, BzATP 100 μM; mean ± standard deviation, n >3
T1 construct: expressed in transfected cells; host or cells: HEK293T, G418-selected; gift from Dr Leanne Stokes and Prof; Jim Wiley
T1 sequence (Q9Z1M0 1-595): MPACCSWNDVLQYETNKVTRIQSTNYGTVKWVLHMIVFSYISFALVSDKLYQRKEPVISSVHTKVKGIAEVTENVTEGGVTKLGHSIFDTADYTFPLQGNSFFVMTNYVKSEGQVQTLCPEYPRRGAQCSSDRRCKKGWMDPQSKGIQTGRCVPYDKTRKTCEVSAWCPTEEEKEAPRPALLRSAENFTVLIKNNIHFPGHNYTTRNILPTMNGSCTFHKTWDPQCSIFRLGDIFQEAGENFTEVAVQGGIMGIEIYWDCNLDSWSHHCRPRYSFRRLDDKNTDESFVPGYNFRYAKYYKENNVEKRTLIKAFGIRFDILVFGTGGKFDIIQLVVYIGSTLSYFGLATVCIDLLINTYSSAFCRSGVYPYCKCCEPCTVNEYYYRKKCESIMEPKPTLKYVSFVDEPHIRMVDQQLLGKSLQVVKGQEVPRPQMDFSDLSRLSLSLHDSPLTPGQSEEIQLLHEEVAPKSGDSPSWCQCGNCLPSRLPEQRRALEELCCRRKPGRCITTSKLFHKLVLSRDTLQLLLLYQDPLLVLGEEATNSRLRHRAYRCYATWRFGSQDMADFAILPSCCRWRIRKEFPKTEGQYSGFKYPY
Description: HEK293T cells transfected with cDNA for the human (HEK-hP2X7) or mouse P2X7 (HEK-mP2X7) receptor (a kind gift from Dr […] Stokes and Prof. Jim Wiley) were cultured in DMEM/F12 with 10% FBS and 500 μg/mL G418 (all from Invitrogen). […] HEK-hP2X7 or HEK-mP2X7 cells were harvested using trypsin (0.05%) with EDTA (0.03%). Cells were loaded with Fluo-4 AM (1 μM) in HBSS buffer at 37° C. for 30 min, inverting every 5 mins. […] Cells were resuspended a final time in assay buffer and seeded into black-walled 96 well clear-bottom plates at a density of 5×10^4 cells/well. […] Fluorescence was then monitored every 5 s for 5 min total monitoring. […] Data were normalized to the peak response seen with BzATP alone and the basal response seen due to injection of vehicle (see FIG. 3).

[3] = target: T2, hP2X7R (Homo sapiens, UniProt Q99572); assay: Yo-Pro uptake assay for P2X7R pore formation in THP-1 cells; format: cell-based; parameters: Following an overnight incubation (16 h) required for THP-1 differentiation; endogenous in cells; host or cells: THP-1 (ATCC), differentiated with LPS and IFN-gamma; conditions: for IC50: THP-1 cells, BzATP 100 μM, YO-PRO-1, mean ± standard deviation, n >4, read-out: Dye uptake IC50 hP2X7R; for LLE: pIC50 from dye uptake and LogD from HPLC
T2 sequence (Q99572 1-595): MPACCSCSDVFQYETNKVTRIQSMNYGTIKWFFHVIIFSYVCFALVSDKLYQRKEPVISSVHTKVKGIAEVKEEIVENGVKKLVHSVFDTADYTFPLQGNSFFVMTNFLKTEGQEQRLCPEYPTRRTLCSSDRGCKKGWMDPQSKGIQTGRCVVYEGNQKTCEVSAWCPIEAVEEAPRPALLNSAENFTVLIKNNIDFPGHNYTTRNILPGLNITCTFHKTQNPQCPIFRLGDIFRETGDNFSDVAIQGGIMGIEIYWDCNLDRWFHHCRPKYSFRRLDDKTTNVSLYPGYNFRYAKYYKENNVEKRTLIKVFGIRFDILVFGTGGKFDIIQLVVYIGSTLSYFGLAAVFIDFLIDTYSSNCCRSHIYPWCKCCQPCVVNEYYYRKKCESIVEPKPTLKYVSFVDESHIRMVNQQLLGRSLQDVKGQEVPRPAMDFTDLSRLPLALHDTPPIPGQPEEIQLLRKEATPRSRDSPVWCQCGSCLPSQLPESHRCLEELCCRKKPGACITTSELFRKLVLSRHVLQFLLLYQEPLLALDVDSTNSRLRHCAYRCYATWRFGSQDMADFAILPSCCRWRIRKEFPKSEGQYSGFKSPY
Description: HEK293T cells transfected with cDNA for the human (HEK-hP2X7) or mouse P2X7 (HEK-mP2X7) receptor (a kind gift from Dr Leanne Stokes and Prof. Jim Wiley) were cultured in DMEM/F12 with 10% FBS and 500 μg/mL G418 (all from Invitrogen). Cells were cultured in 75 cm^2 flasks and incubated at 37° C. in a 5% CO2 humidified atmosphere, maintained in log phase of growth and passaged when cell density reached 1×10^6 cells/mL (every 2-3 days).^3
P2X7R pore formation was assessed by agonist-induced uptake of the Yo-Pro-1 iodide dye. […] Final treatments (in triplicate) were made up in phosphate buffered saline (PBS), without divalent cations, containing PRO®-1 dye (2 μM). Cells were washed once in pre-warmed PBS and treatments were added to cells, with or without 2′(3′)-O-(4-benzoylbenzoyl)adenosine 5′-triphosphate (BzATP, 100 μM) as agonist. Dye uptake was measured at 37° C. using a fluorescence plate reader (BMG Labtech); with data read at λEx485nm/λEm520nm at 30 sec intervals over a 70 min period. […] IC50 values were determined from concentration-response curves derived from a four-parameter variable slope, analyzed in GraphPad Prism® (San Diego, CA).

Row | SMILES | lipophilicity compared with compound 31 [1] | logD7.4 [1] | chromatographic logD [1] | IC50 [2] [nM] | IC50 [3] [nM] | LLE [3]
1 | COc1ccc(Cl)c(C(=O)NCC23CC4(F)CC(F)(CC(F)(C4)C2)C3)c1 [Compound 1, 2-Chloro-N-((3,5,7-trifluoroadamantan-1-yl)methyl)-5-methoxybenzamide] | less lipophilic than compound 31 | 2.83 | 2.83 | 158 ± 44 |  | 
2 | COc1ccc(Cl)c(C(=O)NCC23CC4CC(F)(CC(F)(C4)C2)C3)c1 [Compound 2, 2-Chloro-N-((3,5-difluoroadamantan-1-yl)methyl)-5-methoxybenzamide] | less lipophilic than compound 31 | 2.85 | 2.85 | 575 ± 108 | 30.9 ± 8 | 4.66
3 | COc1ccc(Cl)c(C(=O)NCC23CC4CC(CC(F)(C4)C2)C3)c1 [Compound 3, 2-Chloro-N-((3-fluoroadamantan-1-yl)methyl)-5-methoxybenzamide] | less lipophilic than compound 31 | 3.27 | 3.27 | 1510 ± 339 | 25.1 ± 2.7 | 4.33
4 | COc1ccc(Cl)c(C(=O)NCC23CC4CC(CC(C4)C2)C3)c1 [Compound 31, reference compound] |  | 4.23 | 4.23 | 1900 ± 905 | 10.5 ± 3.1 | 3.75
